Assay results reported in patent US5252495A, “Immunoassay for physostigmine” (priority 1992, dated 1993).
Counter-ions that a name gives are not always drawn.

What was measured:
[1] = target: Antibody from Mannich Immunogen; experiment: RIA cross-reactivity: competition with labeled physostigmine for antibody from Mannich immunogen; format: binding, New Zealand white rabbits; conditions: 1:100, max 1000 ng tested
Method: (§1) Antibodies to the physostigmine-BSA immunogen were produced by injecting male New Zealand white rabbits with immunogens formed by either method. Prior to injection, the immunogen was emulsified with an equal volume of complete Freund's adjuvant, purchased from Difco Laboratories of Detroit, Mich. The initial immunization consisted of 0.8 mg of protein injected intracutaneously in multiple dorsal sites of the rabbits. Booster injections containing 0.8 mg of immunogen and incomplete Freund's adjuvant were administered every two months for the next six months. Antisera was collected one week after each booster injection from the central ear vein. The blood was allowed to clot at room temperature and then centrifuged at 1500×g for 15 minutes. The separated serum was stored frozen at -20° C. until assayed for the presence of physostigmine antibody.
(§2) In the assay procedure ^3 H-Physostigmine having specificity of 19.0 Ci/mmole and purchased from the Amersham Corp. of Arlington Heights, Ill., was used as tracer. […] Both standard and sample tubes were always analyzed in duplicate. The assay was carried out according to the protocol shown in Table 1 with the reagents were added to the assay tubes in the order shown.
(§3) According to the protocol for the RIA of the present invention, after the addition of antisera, the contents of the tubes were mixed and incubated for 3 hours at 4° C. The antigen which bound to the antibody was separated by adding saturated ammonium sulfate and centrifuging at 2500×g for 15 minutes. After aspiration of the supernatant, the precipitate was washed one time with 50% saturated ammonium sulfate; then the mixture was centrifuged and the supernatent removed. The precipitate was dissolved in 1.0 ml of distilled water, and the solution was transferred to a scintillation vial containing 10.0 ml of acquasol 2.
(§4) The radioactivity which was bound to the antibody was determined in counts per minute with a Beckman LS-3133P Liquid Scintillation Counter. […] The concentration of physostigmine is plotted on the horizontal axis, while the percent inhibition of binding radioactively labeled is plotted on the vertical axis. […] Concentrations of physostigmine in unknown samples were determined according to conventional calculations from the standard curve.
(§5) Competition of the compounds with labeled physostigmine (5000 dpm) for antibody binding sites was determined arbitrarily at 50% inhibition of the physostigmine on the standard curve. Each compound was tested for cross-reactivity with the antibody. The maximum concentration of each compound tested was 1000 ng.

[2] = target: Antibody from Diazo-coupled Immunogen; experiment: RIA cross-reactivity: competition with labeled physostigmine for antibody from diazo-coupled immunogen; format: binding, New Zealand white rabbits; conditions: 1:150, max 1000 ng tested
Method: as §1
as §2, with “tracer. The dilution of tracer (5000 dpm), antibody (1:150) and physostigmine standards (100-10,000 pg) were made using 0.01M phosphate buffer containing 150 mM sodium chloride with a pH of 7.4.” for “tracer.”
as §3, §4, §5

[3] = system: antibodies to physostigmine; experiment: Specificity of the antibodies to physostigmine (both antibodies; RIA, HPLC-RIA); format: binding, New Zealand white rabbits; conditions: for binding to the antibodies: RIA
Method: as §1
In the assay procedure ^3 H-Physostigmine having specificity of 19.0 Ci/mmole and purchased from the Amersham Corp. of Arlington Heights, Ill., was used as tracer. The dilution of tracer (5000 dpm), antibody (1:150) and physostigmine standards (100-10,000 pg) were made using 0.01M phosphate buffer containing 150 mM sodium chloride with a pH of 7.4. […] Both standard and sample tubes were always analyzed in duplicate. […]
The HPLC system consisted of Waters Associates liquid chromatograph equipped with a 6000 A solvent delivery system, a Model 441 absorbance detector, a U6K injector, a model 720 system controller, an Omni Scribe recorder (Houston Instruments, Houston, Tex.), a model cygnet Fraction collector (ISCO, Lincoln, Nebr.).
High pressure liquid chromatography (HPLC) was performed using a model C18 u Bondapak column (30 cm×0.39 cm. lid) (waters). The Uv detector was fixed at 245 nm with range set at 0.005 absorbance units full scale and flow rate of the mobile phase adjusted to 2 ml/min. […]
The column was operated at ambient temperature. […] Each residue was then reconstituted using the assay buffer and was analyzed for physostigmine by the RIA. […]

[4] = cited from earlier work

## COc1ccc2c(c1)c(CC(=O)O)c(C)n2C(=O)c1ccc(Cl)cc1 [Indomethacin]
[1]
  IC50 (50% inhibition of binding of 3H-physostigmine): > 1000 ng
[2]
  IC50 (50% inhibition of binding of 3H-physostigmine): > 1000 ng

## Eserine brown
[1]
  IC50 (50% inhibition of binding of 3H-physostigmine): 625 ng
[2]
  IC50 (50% inhibition of binding of 3H-physostigmine): 550 ng

## COc1ccc2[nH]cc(CCNC(C)=O)c2c1 [Melatonin]
[1]
  IC50 (50% inhibition of binding of 3H-physostigmine): > 1000 ng
[2]
  IC50 (50% inhibition of binding of 3H-physostigmine): > 1000 ng

## CN(C)C(=O)Oc1cccc([N+](C)(C)C)c1 [Neostigmine]
[1]
  IC50 (50% inhibition of binding of 3H-physostigmine): > 1000 ng
[3]
  binding to the antibodies: did not bind to the antibodies
[2]
  IC50 (50% inhibition of binding of 3H-physostigmine): > 1000 ng

## NCCc1c[nH]c2ccc(O)cc12 [Serotonin]
[1]
  IC50 (50% inhibition of binding of 3H-physostigmine): > 1000 ng
[2]
  IC50 (50% inhibition of binding of 3H-physostigmine): > 1000 ng

## CN1CC[C@@]2(C)c3cc(O)ccc3N(C)[C@@H]12 [Eseroline, eseroline]
[1]
  IC50 (50% inhibition of binding of 3H-physostigmine): 200 ng
[3]
  amount required to displace radioactive physostigmine from the antibodies, relative to physostigmine: ~150 times
[2]
  IC50 (50% inhibition of binding of 3H-physostigmine): 200 ng

## C[n+]1ccccc1C=NO [Paralidoxime]
[1]
  IC50 (50% inhibition of binding of 3H-physostigmine): > 1000 ng
[2]
  IC50 (50% inhibition of binding of 3H-physostigmine): > 1000 ng

## CNC(=O)Oc1ccc2c(c1)[C@]1(C)CCN(C)[C@@H]1N2C [Physostigmine salts]
[4]; alkaline solutions
  stability in alkaline solutions: unstable in alkaline solutions
[4]
  solubility in water: soluble in water
[4]; rate enhanced in the presence of moisture
  color change upon exposure to air and light: gradually turn red upon exposure to air and light

## CN1CCC2(C)c3cc4nc5c(=O)c6c(cc-5oc4cc3N(C)C12)N(C)C1N(C)CCC61C (centres unmarked) [Eserine blue]
[1]
  IC50 (50% inhibition of binding of 3H-physostigmine): 575 ng
[2]
  IC50 (50% inhibition of binding of 3H-physostigmine): 600 ng

## CN1CC[C@@]2(C)C3=CC(=O)C(=O)C=C3N(C)[C@@H]12 [Rubreserine]
[1]
  IC50 (50% inhibition of binding of 3H-physostigmine): 248 ng
[2]
  IC50 (50% inhibition of binding of 3H-physostigmine): 224 ng

## CN(C)C(=O)Oc1ccc[n+](C)c1 [Pyridostigmine]
[1]
  IC50 (50% inhibition of binding of 3H-physostigmine): > 1000 ng
[3]
  binding to the antibodies: did not bind to the antibodies
[2]
  IC50 (50% inhibition of binding of 3H-physostigmine): > 1000 ng
